One compound from patent publication US20030232862A1 (priority 2002, published 2003) can be followed below.

Holding throughout (format): cell-based, human
The test system of assay [1] is HT-29 colon adenocarcinoma cells. The assay can be described thus: Apoptosis by DNA fragmentation assay in HT-29 cells. Further: key: −: Not active; +: Slightly active; + +: Moderately active; + + +: Strongly active; + + + +: Highly active. Conditions: Table 9 qualitative profile.
Assay [2] concerns HT-29 cells. Put plainly: Apoptosis and necrosis by morphology (acridine orange/ethidium bromide) in HT-29 cells. Particulars: HT-29, six days. The text has this:
Apoptosis occurs naturally during normal tissue turnover and during embryonic development of organs and limbs. Apoptosis also is induced by cytotoxic T-lymphocytes and natural killer cells, by ionizing radiation and by certain chemotherapeutic drugs. Inappropriate regulation of apoptosis is thought to play an important role in many pathological conditions including cancer, AIDS, or Alzheimer's disease, etc. Compounds can be screened for induction of apoptosis using cultures of tumor cells maintained under conditions as described above. Treatment of cells with test compounds involves either pre- or post-confluent cultures and treatment for two to seven days at various concentrations. Apoptotic cells are measured in both the attached and “floating” compartments of the cultures. […]
Reference compounds and test compounds were analyzed for their novel PDE inhibitory activity in accordance with the protocols for the assay, supra. […] Apoptotic and necrotic cell death was determined previously (Duke and Cohen, In: Current Protocols in Immunology, 3.17.1 - 3.17.16, New York, John Wiley and Sons, 1992). […]
The apoptosis inducing activity for a series of phosphodiesterase inhibitors was determined. […] Apoptosis and necrosis were determined morphologically after acridine orange and ethidium bromide labeling in accordance with the assay described, supra. […]

Assay [3] relates to β-catenin and PKG levels in SW480 cells. Put plainly: Western blot of β-catenin and PKG in SW480 cells. The method, then: SW480 cells treated with exisulind as described previously are harvested from the microfuge tubes by rinsing once with ice-cold PBS. The cells are lysed by modified RIPA buffer for 15 minutes with agitation. The cell lysate is spun down in a cold room. The supernatants are transferred to fresh microcentrifuge tubes immediately after spinning. BioRad DC Protein Assay (Temecula, Calif.) is performed to determine the protein concentrations in samples. The samples are normalized for protein concentration, as described above.
50 μg of each sample is loaded onto a 10% SDS gel. SDS-PAGE is performed, and the proteins then are transferred to a nitrocellulose membrane. The blotted nitrocellulose membrane is blocked in freshly prepared TBST containing 5% nonfat dry milk for one hour at room temperature with constant agitation.
A goat-anti-PKG primary antibody is diluted to the recommended concentration/dilution in fresh TBST/5% nonfat dry milk. The nitrocellulose membrane is placed in the primary antibody solution and incubated one hour at room temperature with agitation. The nitrocellulose membrane is washed three times for ten minutes each with TBST. The nitrocellulose membrane is incubated in a solution containing a secondary peroxidase (POD) conjugated rabbit anti-goat antibody for 1 hour at room temperature with agitation. The nitrocellulose membrane is washed three times for ten minutes each time with TBST. The detection is performed by using Boehringer Mannheim BM blue POD substrate.
SW480 cells were treated with exisulind or vehicle (0.1% DMSO) for 48 hours. 50 μg supernatant of each cell lysate was loaded onto a 10% SDS-gel and blotted to a nitrocellulose membrane, and the membrane was probed with rabbit-anti-β-catenin and rabbit anti-PKG antibodies.
This observation was made by culturing SW480 cells with either 200, 400 or 600 μM exisulind or vehicle (0.1% DMSO). The cells are harvested 48 hours post treatment and processed for immunoblotting. Immuno-reactive protein can be detected by Western blot. […]
(In general: Immunoblotting shows a protein as a band on a membrane.)

For the compound `CC1=C(CC(=O)O)c2cc(F)ccc2/C1=C\c1ccc(S(C)(=O)=O)cc1` [Exisulind, 5-fluoro-2-methyl-1-(p-methylsulfonylbenzylidene)-3-indenylacetic acid], in assay [1], the Apoptosis entry was “+ +”. Also, the “apoptotic and necrotic cell death” value in assay [2] was “capable of causing apoptotic cell death without inducing necrosis”. Further, the “reduction of β-catenin expression compared to control” value in assay [3] (SW480, 200, 400 or 600 μM, 48 hours) is reported as 50%. In assay [3] (SW480, 48 hours, FIG. 19), the “PKG level” value is listed as “increase of PKG” and the “β-catenin level” value is listed as “drop of β-catenin”.
